In patent US20140348756A1, “WATER-FREE FORMULATIONS HAVING A COOLING EFFECT” (Henkel AG & Co. KGaA, priority 2011, published 2014):

Tested on: test persons
Test: Measuring the cooling effect: antiperspirant aerosols evaluated by test persons
Format: in vivo
Source text: Measuring the Cooling Effect
Inventive antiperspirant aerosols were produced with various cooling agents and evaluated by test persons. It was shown that the cooling agent L-menthol is employable only in very small quantities, namely in quantities below 0.1 wt %, relative to the weight of the gasified aerosol formulation, corresponding to a weight fraction of 0.66 wt %, relative to the weight of the formulation, without taking into account the propellant. […] The skin compatibility in the armpit area was also worsened by menthol above 0.1 wt %, relative to the weight of the gasified aerosol formulation, corresponding to a weight fraction of 0.66 wt %, relative to the weight of the formulation, without taking into account the propellant. […] The proportion of nonresponders, 47%, was too high, however, and could not be reduced by increasing the concentration of L-menthol without the appearance of the cited inacceptable side effects.
The formulation B including 1.0 wt % of an extract of Rumex acetosa leaf in solution/suspension in isopropyl myristate with a dry substance weight of 0.5 wt %, relative to the weight of the raw material itself, was also found to be cooling by 57% of the test persons. […] The amount of dry substance of the oily Rumex acetosa leaf extract here amounted to 0.033 wt %, relative to the weight of the inventive composition without propellant. […]

Question: With CC(C)[C@@H]1CC[C@@H](C)C[C@H]1O [L-menthol] as the compound, how does the “employable quantity of the cooling agent” value (relative to the weight of the formulation, without taking into account the propellant) read?
Answer: < 0.66 wt %

Question: What about the “employable quantity of the cooling agent” value (relative to the weight of the gasified aerosol formulation) of the same compound?
Answer: below 0.1 wt %
